According to PubChem BioAssay AID1963839 (Molecular Pharmacology Branch, DTP, NCI, 2024):

System: 817829-284-R-J1-PDC complex spheroid viability
Assay: Anticancer human tumor 817829-284-R-J1-PDC patient-derived colon adenocarcinoma cell line growth inhibition [POLQ]
Settings: for IC50: curve of first compound; for viability, T/C: stronger effect = lower value
Summary of the method: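 Growth inhibition in 3D: complex spheroids (tumor PDC, HUVEC, MSC) treated with POLQ inhibitor combinations; where Cmax unknown, highest tested concentration 10 microM, except SN-38 at 1 microM.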

[1] = second compound 0.0316 µM, first compound 0.0316 µM
[2] = second compound 0.0316 µM, first compound 0.1 µM
[3] = second compound 0.1 µM, first compound 0.0316 µM
[4] = second compound 0.1 µM, first compound 0.1 µM
[5] = second compound 0.316 µM, first compound 0.0316 µM
[6] = second compound 0.316 µM, first compound 0.1 µM
[7] = second compound 1 µM, first compound 0.0316 µM
[8] = second compound 1 µM, first compound 0.1 µM
[9] = second compound 3.16 µM, first compound 0.0316 µM
[10] = second compound 3.16 µM, first compound 0.1 µM
[11] = second compound 10 µM, first compound 0.0316 µM
[12] = second compound 10 µM, first compound 0.1 µM
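Note: spheroids exposed to compounds for 7 days.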
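Throughout, for viability, T/C: 100% = DMSO vehicle-treated spheroids.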

SMILES: COc1ccc([C@@H](O)c2cc(-c3ncnc4cc(N5CCOCC5)ccc34)c(F)cc2Cl)nn1 + Nc1ccc(C#CCN(C(=O)Cc2ncc(C(F)(F)F)cc2C(F)(F)F)c2ccc(F)cc2)nn1
- IC50 (second compound 0.0316 µM): 1190 nM
- IC50 (second compound 0.1 µM): 701 nM
- IC50 (second compound 0.316 µM): 1190 nM
- IC50 (second compound 1 µM): 925 nM
- IC50 (second compound 3.16 µM): 1120 nM
- IC50 (second compound 10 µM): 460 nM
- viability, T/C [1]: 109%
- viability, T/C [2]: 85.4%
- viability, T/C (second compound 0.0316 µM, first compound 0.316 µM): 85%
- viability, T/C (second compound 0.0316 µM, first compound 1 µM): 52%
- viability, T/C (second compound 0.0316 µM, first compound 3.16 µM): 28.9%
- viability, T/C (second compound 0.0316 µM, first compound 10 µM): 17.7%
- viability, T/C [3]: 121%
- viability, T/C [4]: 89.8%
- viability, T/C (second compound 0.1 µM, first compound 0.316 µM): 63.5%
- viability, T/C (second compound 0.1 µM, first compound 1 µM): 42.4%
- viability, T/C (second compound 0.1 µM, first compound 3.16 µM): 33.9%
- viability, T/C (second compound 0.1 µM, first compound 10 µM): 23.3%
- viability, T/C [5]: 96.8%
- viability, T/C [6]: 83.2%
- viability, T/C (second compound 0.316 µM, first compound 0.316 µM): 77.9%
- viability, T/C (second compound 0.316 µM, first compound 1 µM): 55.3%
- viability, T/C (second compound 0.316 µM, first compound 3.16 µM): 27.9%
- viability, T/C (second compound 0.316 µM, first compound 10 µM): 20.7%
- viability, T/C [7]: 98.3%
- viability, T/C [8]: 86.8%
- viability, T/C (second compound 1 µM, first compound 0.316 µM): 71.8%
- viability, T/C (second compound 1 µM, first compound 1 µM): 46.5%
- viability, T/C (second compound 1 µM, first compound 3.16 µM): 32.1%
- viability, T/C (second compound 1 µM, first compound 10 µM): 19.1%
- viability, T/C [9]: 103%
- viability, T/C [10]: 86%
- viability, T/C (second compound 3.16 µM, first compound 0.316 µM): 65%
- viability, T/C (second compound 3.16 µM, first compound 1 µM): 55.2%
- viability, T/C (second compound 3.16 µM, first compound 3.16 µM): 34.2%
- viability, T/C (second compound 3.16 µM, first compound 10 µM): 20.9%
- viability, T/C [11]: 106%
- viability, T/C [12]: 74.3%
- viability, T/C (second compound 10 µM, first compound 0.316 µM): 56.5%
- viability, T/C (second compound 10 µM, first compound 1 µM): 39.1%
- viability, T/C (second compound 10 µM, first compound 3.16 µM): 28.5%
- viability, T/C (second compound 10 µM, first compound 10 µM): 16%

SMILES: Cn1ncnc1[C@H]1c2n[nH]c(=O)c3cc(F)cc(c23)N[C@@H]1c1ccc(F)cc1 + Nc1ccc(C#CCN(C(=O)Cc2ncc(C(F)(F)F)cc2C(F)(F)F)c2ccc(F)cc2)nn1
- IC50 (second compound 0.0316 µM): 38.9 nM
- IC50 (second compound 0.1 µM): 43.5 nM
- IC50 (second compound 0.316 µM): 21.4 nM
- IC50 (second compound 1 µM): 37.5 nM
- IC50 (second compound 3.16 µM): 48.9 nM
- IC50 (second compound 10 µM): 26.5 nM
- viability, T/C (second compound 0.0316 µM, first compound 0.000316 µM): 97.7%
- viability, T/C (second compound 0.0316 µM, first compound 0.001 µM): 82.9%
- viability, T/C (second compound 0.0316 µM, first compound 0.00316 µM): 85%
- viability, T/C (second compound 0.0316 µM, first compound 0.01 µM): 63.8%
- viability, T/C [1]: 55.5%
- viability, T/C [2]: 35%
- viability, T/C (second compound 0.1 µM, first compound 0.000316 µM): 79.9%
- viability, T/C (second compound 0.1 µM, first compound 0.001 µM): 89.2%
- viability, T/C (second compound 0.1 µM, first compound 0.00316 µM): 76.1%
- viability, T/C (second compound 0.1 µM, first compound 0.01 µM): 69.5%
- viability, T/C [3]: 58.7%
- viability, T/C [4]: 30.9%
- viability, T/C (second compound 0.316 µM, first compound 0.000316 µM): 107%
- viability, T/C (second compound 0.316 µM, first compound 0.001 µM): 92.5%
- viability, T/C (second compound 0.316 µM, first compound 0.00316 µM): 64.8%
- viability, T/C (second compound 0.316 µM, first compound 0.01 µM): 64.2%
- viability, T/C [5]: 47.4%
- viability, T/C [6]: 31.7%
- viability, T/C (second compound 1 µM, first compound 0.000316 µM): 94.8%
- viability, T/C (second compound 1 µM, first compound 0.001 µM): 93.2%
- viability, T/C (second compound 1 µM, first compound 0.00316 µM): 69.2%
- viability, T/C (second compound 1 µM, first compound 0.01 µM): 65.6%
- viability, T/C [7]: 55.2%
- viability, T/C [8]: 37.1%
- viability, T/C (second compound 3.16 µM, first compound 0.000316 µM): 87.3%
- viability, T/C (second compound 3.16 µM, first compound 0.001 µM): 93.8%
- viability, T/C (second compound 3.16 µM, first compound 0.00316 µM): 63.9%
- viability, T/C (second compound 3.16 µM, first compound 0.01 µM): 67.4%
- viability, T/C [9]: 58%
- viability, T/C [10]: 41%
- viability, T/C (second compound 10 µM, first compound 0.000316 µM): 107%
- viability, T/C (second compound 10 µM, first compound 0.001 µM): 80.1%
- viability, T/C (second compound 10 µM, first compound 0.00316 µM): 80.5%
- viability, T/C (second compound 10 µM, first compound 0.01 µM): 61.6%
- viability, T/C [11]: 49.7%
- viability, T/C [12]: 32.4%
